PubChem BioAssay (NCI)
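Dose response: 5 concentrations. Exposure: 48 h. Format: 96-well plates. Endpoint: linear interpolation; highest concentration if not reached. Abbreviation: GI50, concentration required for 50% inhibition of growth. The concentration for full growth arrest is given as TGI.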

Tests used:
Experiment in all cases: DTP human tumour cell line panel, 48 h
786-0 renal = system: 786-0 renal
A498 renal = system: A498 renal
A549 NSCLC = system: A549 NSCLC
ACHN renal = system: ACHN renal
BT-549 breast = system: BT-549 breast
CAKI-1 renal = system: CAKI-1 renal
CCRF-CEM leukemia = system: CCRF-CEM leukemia
COLO 205 colon = system: COLO 205 colon
DU-145 prostate = system: DU-145 prostate
EKVX NSCLC = system: EKVX NSCLC
HCC-2998 colon = system: HCC-2998 colon
HCT-116 colon = system: HCT-116 colon
HCT-15 colon = system: HCT-15 colon
HL-60(TB) leukemia = system: HL-60(TB) leukemia
HOP-62 NSCLC = system: HOP-62 NSCLC
HOP-92 NSCLC = system: HOP-92 NSCLC
HS 578T breast = system: HS 578T breast
HT29 colon = system: HT29 colon
IGROV1 ovarian = system: IGROV1 ovarian
K-562 leukemia = system: K-562 leukemia
KM12 colon = system: KM12 colon
LOX IMVI melanoma = system: LOX IMVI melanoma
M14 melanoma = system: M14 melanoma
MALME-3M melanoma = system: MALME-3M melanoma
MCF7 breast = system: MCF7 breast
MDA-MB-231 breast = system: MDA-MB-231 breast
MDA-MB-435 = system: MDA-MB-435
MDA-N = system: MDA-N
MOLT-4 leukemia = system: MOLT-4 leukemia
NCI-H226 lung = system: NCI-H226 lung
NCI-H23 lung = system: NCI-H23 lung
NCI-H460 lung = system: NCI-H460 lung
NCI-H522 lung = system: NCI-H522 lung
NCI/ADR-RES ovarian = system: NCI/ADR-RES ovarian
OVCAR-3 ovarian = system: OVCAR-3 ovarian
OVCAR-4 ovarian = system: OVCAR-4 ovarian
OVCAR-5 ovarian = system: OVCAR-5 ovarian
OVCAR-8 ovarian = system: OVCAR-8 ovarian
PC-3 prostate = system: PC-3 prostate
RPMI-8226 leukemia = system: RPMI-8226 leukemia
RXF 393 renal = system: RXF 393 renal
SF-268 CNS = system: SF-268 CNS
SF-295 CNS = system: SF-295 CNS
SF-539 CNS = system: SF-539 CNS
SK-MEL-2 melanoma = system: SK-MEL-2 melanoma
SK-MEL-28 melanoma = system: SK-MEL-28 melanoma
SK-MEL-5 melanoma = system: SK-MEL-5 melanoma
SK-OV-3 ovarian = system: SK-OV-3 ovarian
SN12C renal = system: SN12C renal
SNB-19 CNS = system: SNB-19 CNS
SNB-75 CNS = system: SNB-75 CNS
SR leukemia = system: SR leukemia
SW-620 colon = system: SW-620 colon
T-47D breast = system: T-47D breast
TK-10 renal = system: TK-10 renal
U251 CNS = system: U251 CNS
UACC-257 melanoma = system: UACC-257 melanoma
UACC-62 melanoma = system: UACC-62 melanoma
UO-31 renal = system: UO-31 renal

## Cc1ccncc1.F[B-](F)(F)F.[Pt+2].c1ccc(-c2cccc(-c3ccccn3)n2)nc1
786-0 renal
  TGI: 46.4 µM
A498 renal
  TGI: 45.1 µM
A549 NSCLC
  TGI: > 75.7 µM
ACHN renal
  TGI: 25.1 µM
BT-549 breast
  GI50: 13.7 µM
  TGI: > 78.6 µM
CAKI-1 renal
  TGI: > 62.1 µM
CCRF-CEM leukemia
  TGI: > 100 µM
COLO 205 colon
  TGI: 20.8 µM
DU-145 prostate
  TGI: > 100 µM
EKVX NSCLC
  TGI: > 73.5 µM
HCC-2998 colon
  TGI: 59.5 µM
HCT-116 colon
  TGI: > 100 µM
HCT-15 colon
  TGI: 38.1 µM
HL-60(TB) leukemia
  TGI: > 45.7 µM
HOP-62 NSCLC
  TGI: > 55.2 µM
HOP-92 NSCLC
  GI50: 10.2 µM
  TGI: > 100 µM
HS 578T breast
  TGI: > 45 µM
HT29 colon
  TGI: 27.9 µM
IGROV1 ovarian
  TGI: > 30.6 µM
K-562 leukemia
  TGI: > 100 µM
KM12 colon
  TGI: 39.5 µM
LOX IMVI melanoma
  GI50: 1.28 µM
  TGI: > 88.4 µM
M14 melanoma
  TGI: 13.5 µM
MALME-3M melanoma
  TGI: 20.1 µM
MCF7 breast
  TGI: 25.7 µM
MDA-MB-231 breast
  TGI: > 100 µM
MDA-MB-435
  TGI: > 81.4 µM
MDA-N
  TGI: > 100 µM
MOLT-4 leukemia
  TGI: 39.1 µM
NCI-H226 lung
  GI50: 0.618 µM
  TGI: 5.36 µM
NCI-H23 lung
  TGI: > 88 µM
NCI-H460 lung
  TGI: 23.3 µM
NCI-H522 lung
  TGI: 36.3 µM
NCI/ADR-RES ovarian
  TGI: 11.7 µM
OVCAR-3 ovarian
  GI50: 0.835 µM
  TGI: > 44.3 µM
OVCAR-4 ovarian
  TGI: > 100 µM
OVCAR-5 ovarian
  TGI: 41.4 µM
OVCAR-8 ovarian
  TGI: 31 µM
PC-3 prostate
  TGI: > 100 µM
RPMI-8226 leukemia
  TGI: 32.9 µM
RXF 393 renal
  TGI: 38.4 µM
SF-268 CNS
  TGI: > 60 µM
SF-295 CNS
  TGI: 7.74 µM
SF-539 CNS
  TGI: 15.1 µM
SK-MEL-2 melanoma
  TGI: > 100 µM
SK-MEL-28 melanoma
  TGI: > 100 µM
SK-MEL-5 melanoma
  TGI: 21.7 µM
SK-OV-3 ovarian
  TGI: 17.6 µM
SN12C renal
  TGI: > 100 µM
SNB-19 CNS
  TGI: > 66.7 µM
SNB-75 CNS
  TGI: > 89.7 µM
SR leukemia
  TGI: > 100 µM
SW-620 colon
  TGI: 42.6 µM
T-47D breast
  TGI: 42.9 µM
TK-10 renal
  TGI: 28.5 µM
U251 CNS
  TGI: > 100 µM
UACC-257 melanoma
  TGI: 44.5 µM
UACC-62 melanoma
  TGI: 36.5 µM
UO-31 renal
  TGI: > 27.8 µM

## O=C1NC(=O)/C(=C/c2ccc(S(=O)(=O)N/N=C/c3ccc(Cl)cc3)cc2)N1
786-0 renal
  TGI: > 100 µM
A498 renal
  TGI: > 100 µM
A549 NSCLC
  TGI: > 100 µM
ACHN renal
  TGI: > 100 µM
BT-549 breast
  TGI: > 100 µM
CAKI-1 renal
  TGI: > 100 µM
CCRF-CEM leukemia
  TGI: > 100 µM
COLO 205 colon
  TGI: > 100 µM
DU-145 prostate
  TGI: > 100 µM
EKVX NSCLC
  TGI: > 100 µM
HCC-2998 colon
  TGI: > 100 µM
HCT-116 colon
  TGI: > 100 µM
HCT-15 colon
  TGI: > 100 µM
HL-60(TB) leukemia
  TGI: > 100 µM
HOP-62 NSCLC
  TGI: > 100 µM
HOP-92 NSCLC
  TGI: > 100 µM
HS 578T breast
  TGI: > 100 µM
HT29 colon
  TGI: > 100 µM
IGROV1 ovarian
  TGI: > 100 µM
K-562 leukemia
  TGI: > 100 µM
KM12 colon
  TGI: > 100 µM
LOX IMVI melanoma
  TGI: > 100 µM
M14 melanoma
  TGI: > 100 µM
MALME-3M melanoma
  TGI: > 100 µM
MCF7 breast
  TGI: > 100 µM
MDA-MB-231 breast
  TGI: > 100 µM
MDA-MB-435
  TGI: > 100 µM
MDA-N
  TGI: > 100 µM
MOLT-4 leukemia
  TGI: > 100 µM
NCI-H226 lung
  TGI: > 100 µM
NCI-H23 lung
  TGI: > 100 µM
NCI-H460 lung
  TGI: > 100 µM
NCI/ADR-RES ovarian
  TGI: > 100 µM
OVCAR-3 ovarian
  TGI: > 100 µM
OVCAR-4 ovarian
  TGI: > 100 µM
OVCAR-5 ovarian
  TGI: > 100 µM
OVCAR-8 ovarian
  TGI: > 100 µM
PC-3 prostate
  TGI: > 100 µM
RPMI-8226 leukemia
  TGI: > 100 µM
RXF 393 renal
  TGI: > 100 µM
SF-268 CNS
  TGI: > 100 µM
SF-295 CNS
  TGI: > 100 µM
SK-MEL-2 melanoma
  TGI: > 100 µM
SK-MEL-28 melanoma
  TGI: > 100 µM
SK-MEL-5 melanoma
  TGI: > 100 µM
SK-OV-3 ovarian
  TGI: > 100 µM
SN12C renal
  TGI: > 100 µM
SNB-19 CNS
  TGI: > 100 µM
SNB-75 CNS
  TGI: > 100 µM
SR leukemia
  TGI: > 100 µM
SW-620 colon
  TGI: > 100 µM
T-47D breast
  TGI: > 100 µM
TK-10 renal
  TGI: > 100 µM
U251 CNS
  TGI: > 100 µM
UACC-257 melanoma
  TGI: > 100 µM
UACC-62 melanoma
  TGI: > 100 µM
UO-31 renal
  TGI: > 100 µM

## COC(=O)[C@H]1[C@@H](C(C)C)O[C@@H](C(C)C)O[C@H]1C(F)(F)F
786-0 renal
  TGI: > 100 µM
A498 renal
  TGI: > 100 µM
A549 NSCLC
  TGI: > 100 µM
ACHN renal
  TGI: > 100 µM
BT-549 breast
  TGI: > 100 µM
CAKI-1 renal
  TGI: > 100 µM
CCRF-CEM leukemia
  TGI: > 100 µM
COLO 205 colon
  TGI: > 100 µM
DU-145 prostate
  TGI: > 100 µM
EKVX NSCLC
  TGI: > 100 µM
HCC-2998 colon
  TGI: > 100 µM
HCT-116 colon
  TGI: > 100 µM
HCT-15 colon
  TGI: > 100 µM
HL-60(TB) leukemia
  TGI: > 100 µM
HOP-62 NSCLC
  TGI: > 100 µM
HOP-92 NSCLC
  TGI: > 100 µM
HS 578T breast
  TGI: > 100 µM
HT29 colon
  TGI: > 100 µM
IGROV1 ovarian
  TGI: > 100 µM
K-562 leukemia
  TGI: > 100 µM
KM12 colon
  TGI: > 100 µM
LOX IMVI melanoma
  TGI: > 100 µM
M14 melanoma
  TGI: > 100 µM
MALME-3M melanoma
  TGI: > 100 µM
MCF7 breast
  TGI: > 100 µM
MDA-MB-231 breast
  TGI: > 100 µM
MDA-MB-435
  TGI: > 100 µM
MDA-N
  TGI: > 100 µM
MOLT-4 leukemia
  TGI: > 100 µM
NCI-H226 lung
  TGI: > 100 µM
NCI-H23 lung
  TGI: > 100 µM
NCI-H460 lung
  TGI: > 100 µM
NCI-H522 lung
  TGI: > 100 µM
NCI/ADR-RES ovarian
  TGI: > 100 µM
OVCAR-3 ovarian
  TGI: > 100 µM
OVCAR-4 ovarian
  TGI: > 100 µM
OVCAR-5 ovarian
  TGI: > 100 µM
OVCAR-8 ovarian
  TGI: > 100 µM
PC-3 prostate
  TGI: > 100 µM
RPMI-8226 leukemia
  TGI: > 100 µM
RXF 393 renal
  TGI: > 100 µM
SF-268 CNS
  TGI: > 100 µM
SF-295 CNS
  TGI: > 100 µM
SF-539 CNS
  TGI: > 100 µM
SK-MEL-28 melanoma
  TGI: > 100 µM
SK-MEL-5 melanoma
  TGI: > 100 µM
SK-OV-3 ovarian
  TGI: > 100 µM
SN12C renal
  TGI: > 100 µM
SNB-19 CNS
  TGI: > 100 µM
SNB-75 CNS
  TGI: > 100 µM
SR leukemia
  TGI: > 100 µM
SW-620 colon
  TGI: > 100 µM
T-47D breast
  TGI: > 100 µM
TK-10 renal
  TGI: > 100 µM
U251 CNS
  TGI: > 100 µM
UACC-257 melanoma
  TGI: > 100 µM
UACC-62 melanoma
  TGI: > 100 µM
UO-31 renal
  TGI: > 100 µM
